The data set in a line: Assessment of solubility (McIlvaine buffers, 24 h shake, UPLC-UV). Format: physicochemical. The note with it: kinetic from dmso stock. Put shortly: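 Compounds from 10 mM DMSO stocks were shaken for 24 h at room temperature in McIlvaine buffers at pH 2.2, 4.5 and 6.8 (2.5% v/v DMSO final), then filtered. Filtrates were quantified by UPLC-UV at 254 nm against a 50:50 acetonitrile/water reference assumed fully dissolved, as a single determination.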

≈ marks a conversion by molar mass, not a printed value.

For 27 molecules, solubility results are on record in US8906904B2, “Alkoxy pyrazoles as soluble guanylate cyclase activators” (Boehringer Ingelheim International GmbH, priority 2012, dated 2014).

In the case of `CCOc1c(C(=O)O)cnn1-c1cccc(-c2cccc(C)c2OCc2ccc3c(c2C)CCN(CC2COCCO2)C3)n1` (stereo in doubt) [Compound 185, 1-{6-[2-(2-(S)-1-[1,4]Dioxan-2-ylmethyl-5-methyl-1,2,3,4-tetrahydro-isoquinolin-6-ylmethoxy)-3-methyl-phenyl]-pyridin-2-yl}-5-ethoxy-1H-pyrazole-4-carboxylic acid], the solubility at 24 h runs as follows: (pH 2.2, aqueous buffer) 100 µg/mL (≈ 167 µM); (pH 4.5, aqueous buffer) 83 µg/mL (≈ 139 µM); (pH 6.8, aqueous buffer) 82 µg/mL (≈ 137 µM).
In the same order, the values of `COc1c(C(=O)O)cnn1-c1cccc(-c2cccc(C)c2OCc2ccc3c(c2)CCN(C2CCOC2)C3)n1` (stereo not drawn) [Compound 15] are 110 µg/mL (≈ 203 µM), 88 µg/mL (≈ 163 µM) and 90 µg/mL (≈ 166 µM).
Consider `COc1c(C(=O)O)cnn1-c1cccc(-c2cccc(C)c2OCc2ccc3c(c2C)CCN(C2COC2)C3)n1` [Compound 16], for which the solubility at 24 h reads like this: (pH 2.2, aqueous buffer) 95 µg/mL (≈ 176 µM); (pH 4.5, aqueous buffer) 71 µg/mL (≈ 131 µM); (pH 6.8, aqueous buffer) 81 µg/mL (≈ 150 µM).
For `COc1c(C(=O)O)cnn1-c1cccc(-c2cccc(C)c2OCc2ccc3c(c2Cl)CCN(C2COC2)C3)n1` [Compound 17], the concentration in solution (pH 2.2, aqueous buffer) (solubility at 24 h) came to 97 µg/mL (≈ 173 µM); the concentration in solution (pH 4.5, aqueous buffer) (solubility at 24 h) was 62 µg/mL (≈ 111 µM); the concentration in solution (pH 6.8, aqueous buffer) (solubility at 24 h) was 85 µg/mL (≈ 152 µM).
`COc1c(C(=O)O)cnn1-c1cccc(-c2cccc(C)c2OCc2ccc3c(c2Cl)CCN(C2CCOCC2)C3)n1` [Compound 18] registered a solubility at 24 h (pH 2.2, aqueous buffer) of 110 µg/mL (≈ 187 µM); a solubility at 24 h (pH 4.5, aqueous buffer) of 86 µg/mL (≈ 146 µM); a solubility at 24 h (pH 6.8, aqueous buffer) of 90 µg/mL (≈ 153 µM).
`COc1c(C(=O)O)cnn1-c1cccc(-c2cccc(C)c2OCc2ccc3c(c2Cl)CCN(CC2(C)COC2)C3)n1` [Compound 19]: the solubility at 24 h by setting is: (pH 2.2, aqueous buffer) 96 µg/mL (≈ 163 µM); (pH 4.5, aqueous buffer) 70 µg/mL (≈ 119 µM); (pH 6.8, aqueous buffer) 75 µg/mL (≈ 127 µM).
For `COc1c(C(=O)O)cnn1-c1cccc(-c2cccc(C)c2OCc2ccc3c(c2Cl)CCN(C2CCC2)C3)n1` [Compound 20], in that order: 95 µg/mL (≈ 170 µM), 72 µg/mL (≈ 129 µM) and 68 µg/mL (≈ 122 µM).
On to `COc1c(C(=O)O)cnn1-c1cccc(-c2cccc(C)c2OCc2ccc3c(c2Cl)CCN(CC(C)(C)C)C3)n1` [Compound 21], for which the solubility at 24 h reads like this: (pH 2.2, aqueous buffer) 96 µg/mL (≈ 167 µM); (pH 4.5, aqueous buffer) 62 µg/mL (≈ 108 µM); (pH 6.8, aqueous buffer) 60 µg/mL (≈ 104 µM).
For `COc1c(C(=O)O)cnn1-c1cccc(-c2cccc(C)c2OCc2ccc3c(c2Cl)CCN(C2CCOC2)C3)n1` (stereo not drawn) [Compound 22], in that order: 97 µg/mL (≈ 169 µM), 68 µg/mL (≈ 118 µM) and 73 µg/mL (≈ 127 µM).
`COCC(C)N1CCc2cc(COc3c(C)cccc3-c3cccc(-n4ncc(C(=O)O)c4OC)n3)ccc2C1` (stereo not drawn) [Compound 23] came in with a solubility at 24 h (pH 2.2, aqueous buffer) of 99 µg/mL (≈ 182 µM); a solubility at 24 h (pH 4.5, aqueous buffer) of 79 µg/mL (≈ 146 µM); a solubility at 24 h (pH 6.8, aqueous buffer) of 82 µg/mL (≈ 151 µM).
For `COc1c(C(=O)O)cnn1-c1cccc(-c2cccc(C)c2OCc2ccc3c(c2)CCN(CC2CC2)C3)n1` [Compound 24], the solubility at 24 h runs as follows: (pH 2.2, aqueous buffer) 95 µg/mL (≈ 181 µM); (pH 4.5, aqueous buffer) 76 µg/mL (≈ 145 µM); (pH 6.8, aqueous buffer) 76 µg/mL (≈ 145 µM).
In turn, `COc1c(C(=O)O)cnn1-c1cccc(-c2cccc(C)c2OCc2ccc3c(c2)CCN(CC2CCC2)C3)n1` [Compound 25] had a solubility at 24 h (pH 2.2, aqueous buffer) of 91 µg/mL (≈ 169 µM); a solubility at 24 h (pH 4.5, aqueous buffer) of 38 µg/mL (≈ 70.5 µM); a solubility at 24 h (pH 6.8, aqueous buffer) of 39 µg/mL (≈ 72.4 µM).
`COc1c(C(=O)O)cnn1-c1cccc(-c2cccc(C)c2OCc2ccc3c(c2)CCN(CC2CC(F)(F)C2)C3)n1` [Compound 26]: the solubility at 24 h amounted to 100 µg/mL (≈ 174 µM) (pH 2.2, aqueous buffer); 80 µg/mL (≈ 139 µM) (pH 4.5, aqueous buffer); 80 µg/mL (≈ 139 µM) (pH 6.8, aqueous buffer).
For `COc1c(C(=O)O)cnn1-c1cccc(-c2cccc(C)c2OCc2ccc3c(c2C)CCN(C2CCOCC2)C3)n1` [Compound 27], the solubility at 24 h was determined as 110 µg/mL (≈ 193 µM) (pH 2.2, aqueous buffer); 88 µg/mL (≈ 155 µM) (pH 4.5, aqueous buffer); 90 µg/mL (≈ 158 µM) (pH 6.8, aqueous buffer).
In the case of `COc1c(C(=O)O)cnn1-c1cccc(-c2cccc(C)c2OCc2ccc3c(c2C)CCN(CC2(C)COC2)C3)n1` [Compound 28], the solubility at 24 h is 110 µg/mL (≈ 193 µM) (pH 2.2, aqueous buffer); 83 µg/mL (≈ 146 µM) (pH 4.5, aqueous buffer); 90 µg/mL (≈ 158 µM) (pH 6.8, aqueous buffer).
As for `COc1c(C(=O)O)cnn1-c1cccc(-c2cccc(C)c2OCc2ccc3c(c2C)CCN(CC2CC(F)(F)C2)C3)n1` [Compound 29], the solubility at 24 h reads like this: (pH 2.2, aqueous buffer) 110 µg/mL (≈ 187 µM); (pH 4.5, aqueous buffer) 79 µg/mL (≈ 134 µM); (pH 6.8, aqueous buffer) 78 µg/mL (≈ 133 µM).
For `COc1c(C(=O)O)cnn1-c1cccc(-c2cc(C)cc(C)c2OCc2ccc3c(c2C)CCN(C2CCOCC2)C3)n1` [Compound 180], the solubility at 24 h (pH 2.2, aqueous buffer) was 100 µg/mL (≈ 172 µM); the solubility at 24 h (pH 4.5, aqueous buffer) was 79 µg/mL (≈ 136 µM); the concentration in solution (pH 6.8, aqueous buffer) (solubility at 24 h) came to 76 µg/mL (≈ 130 µM).
For `COc1c(C(=O)O)cnn1-c1cccc(-c2cc(C)cc(C)c2OCc2ccc3c(c2)CCN(C2CCOCC2)C3)n1` [Compound 181], the solubility at 24 h is 110 µg/mL (≈ 193 µM) (pH 2.2, aqueous buffer); 87 µg/mL (≈ 153 µM) (pH 4.5, aqueous buffer); 88 µg/mL (≈ 155 µM) (pH 6.8, aqueous buffer).
In the same order, the values of `COc1ccc(OCc2ccc3c(c2C)CCN(C2CCOCC2)C3)c(-c2cccc(-n3ncc(C(=O)O)c3OC)n2)c1` [Compound 182] are 110 µg/mL (≈ 188 µM), 81 µg/mL (≈ 139 µM) and 81 µg/mL (≈ 139 µM).
In the same order, the values of `COc1c(C(=O)O)cnn1-c1cccc(-c2cccc(C)c2OCc2ccc3c(c2C)CCN(C2CCOCC2)CC3)n1` [Compound 184] are 89 µg/mL (≈ 153 µM), 76 µg/mL (≈ 130 µM) and 76 µg/mL (≈ 130 µM).
With `COc1c(C(=O)O)cnn1-c1cccc(-c2cccc(C)c2OCc2cc(C)c3c(c2)CCN(C2COC2)C3)n1` [Compound 186], the solubility at 24 h reads like this: (pH 2.2, aqueous buffer) 110 µg/mL (≈ 203 µM); (pH 4.5, aqueous buffer) 83 µg/mL (≈ 154 µM); (pH 6.8, aqueous buffer) 99 µg/mL (≈ 183 µM).
`COc1c(C(=O)O)cnn1-c1cccc(-c2cccc(C)c2OCc2ccc3c(c2)CCN(C[C@@H]2CCOC2)C3)n1` [Compound 188] came in with a solubility at 24 h (pH 2.2, aqueous buffer) of 89 µg/mL (≈ 160 µM); a solubility at 24 h (pH 4.5, aqueous buffer) of 77 µg/mL (≈ 139 µM); a solubility at 24 h (pH 6.8, aqueous buffer) of 73 µg/mL (≈ 132 µM).
On to `CCOc1c(C(=O)O)cnn1-c1cccc(-c2cccc(C)c2OCc2ccc3c(c2C)CCN(C[C@@H]2CCOC2)C3)n1` [Compound 189], for which the solubility at 24 h is, setting by setting: (pH 2.2, aqueous buffer) 89 µg/mL (≈ 153 µM); (pH 4.5, aqueous buffer) 73 µg/mL (≈ 125 µM); (pH 6.8, aqueous buffer) 75 µg/mL (≈ 129 µM).
As to `CCOc1c(C(=O)O)cnn1-c1cccc(-c2cccc(C)c2OCc2ccc3c(c2C)CCN(CC2(C)COC2)CC3)n1` [Compound 190], the solubility at 24 h runs as follows: (pH 2.2, aqueous buffer) 100 µg/mL (≈ 168 µM); (pH 4.5, aqueous buffer) 83 µg/mL (≈ 139 µM); (pH 6.8, aqueous buffer) 87 µg/mL (≈ 146 µM).
Regarding `COc1c(C(=O)O)cnn1-c1cccc(-c2cccc(C)c2OCc2ccc3c(c2C)CCN(C[C@@H]2CCOC2)C3)n1` [Compound 191], the solubility at 24 h was determined as 100 µg/mL (≈ 176 µM) (pH 2.2, aqueous buffer); 85 µg/mL (≈ 149 µM) (pH 4.5, aqueous buffer); 80 µg/mL (≈ 141 µM) (pH 6.8, aqueous buffer).
For the molecule `CCOc1c(C(=O)O)cnn1-c1cccc(-c2cccc(C)c2OCc2ccc3c(c2C)CCN(C[C@H]2CCOC2)C3)n1` [Compound 193], the solubility at 24 h by setting is: (pH 2.2, aqueous buffer) 100 µg/mL (≈ 172 µM); (pH 4.5, aqueous buffer) 80 µg/mL (≈ 137 µM); (pH 6.8, aqueous buffer) 73 µg/mL (≈ 125 µM).
For the molecule `CCOc1c(C(=O)O)cnn1-c1cccc(-c2cccc(C)c2OCc2ccc3c(c2C)CCN(C2CCOCC2)C3=O)n1` [Compound 194], the solubility at 24 h is, setting by setting: (pH 2.2, aqueous buffer) 0.68 µg/mL (≈ 1.14 µM); (pH 4.5, aqueous buffer) 2.5 µg/mL (≈ 4.19 µM); (pH 6.8, aqueous buffer) 78 µg/mL (≈ 131 µM).
